Experimental data reported in ChEMBL document CHEMBL1201862, “PubChem BioAssay data set” (2004).
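Briefly, cells in 96-well plates were exposed to five compound concentrations for 48 h, and endpoints were estimated by linear interpolation. GI50 is the concentration that inhibits growth by half.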 Calls of active or inactive are those of the source. Rule as the data show it: active = GI50 up to about 1.1 µM and inactive = higher.

Assays:
Assay in all cases: inhibition of tumour cell growth, NCI panel, 48 h
[1] = system: SK-MEL-28
[2] = system: HT-29
[3] = system: MDA-MB-231
[4] = system: BT-549
[5] = system: HOP-62
[6] = system: OVCAR-3
[7] = system: PC-3
[8] = system: MDA-MB-435
[9] = system: SW-620
[10] = system: OVCAR-8
[11] = system: HL-60
[12] = system: SR
[13] = system: COLO 205
[14] = system: MOLT-4
[15] = system: T47D

Measured: GI50

COc1cc2c(cc1OC)C13CCN4CC5=CCOC(CC(=O)O)C(C5CC41)C3N2 (stereo not drawn)
inactive: [1] > 100 µM | [2] > 100 µM | [3] > 100 µM | [4] > 100 µM | [5] > 100 µM | [6] > 100 µM | [7] > 100 µM | [8] > 100 µM | [9] > 100 µM | [10] > 100 µM | [11] > 100 µM | [12] > 100 µM | [13] > 100 µM | [14] > 100 µM

CN(C)/N=C(/CC(O)(C(F)(F)F)C(F)(F)F)c1ccc([N+](=O)[O-])cc1
inactive: [1] > 100 µM | [2] > 100 µM | [15] > 100 µM | [3] > 100 µM | [5] > 100 µM | [6] > 100 µM | [7] > 100 µM | [8] > 100 µM | [9] > 100 µM | [10] > 100 µM | [11] > 100 µM | [12] > 100 µM | [13] > 100 µM | [14] > 100 µM

COP(=O)(OC)C(Cc1c[nH]c2ccccc12)NC(=O)OCc1ccccc1 (stereo not drawn)
inactive: [1] > 100 µM | [2] > 100 µM | [15] 71.3 µM | [3] > 100 µM | [5] > 100 µM | [6] 40.5 µM | [7] > 100 µM | [8] > 100 µM | [9] > 100 µM | [10] > 100 µM | [11] > 100 µM | [12] > 100 µM | [13] > 100 µM

c1ccc(P2c3ccccc3Nc3ccccc32)cc1
inactive: [1] > 100 µM | [2] 49 µM | [15] 55.2 µM | [3] 35.3 µM | [5] 64.9 µM | [6] 16.3 µM | [7] 30 µM | [8] > 100 µM | [9] > 100 µM | [10] > 100 µM | [11] 29.1 µM | [12] 23.2 µM | [13] 32.7 µM | [14] 24.8 µM

Cc1ccc(C(=O)N/N=C(\N=N\c2cccc([N+](=O)[O-])c2)c2ccc(N(C)C)cc2)cc1
inactive: [1] > 100 µM | [2] 46.5 µM | [3] > 100 µM | [4] 47.8 µM | [6] 34.6 µM | [7] > 100 µM | [8] 24.9 µM | [9] > 100 µM | [10] 97.1 µM | [11] 27.9 µM | [13] > 100 µM | [14] 14.4 µM

O=C(Nc1c(Cl)cc([N+](=O)[O-])cc1Cl)/C(=N\Nc1cccc(Cl)c1)c1c(O)c2ccccc2oc1=O
inactive: [1] > 100 µM | [2] > 100 µM | [5] 74 µM | [6] > 100 µM | [9] > 100 µM | [10] > 100 µM | [11] 71.9 µM | [12] 78.7 µM | [13] > 100 µM | [14] > 100 µM

CC1=Nc2nc(Cl)cn2C(=O)C1(Cl)Cl
inactive: [1] > 10 µM | [2] > 10 µM | [15] > 10 µM | [3] > 10 µM | [5] > 10 µM | [6] > 10 µM | [7] > 10 µM | [8] > 10 µM | [9] > 10 µM | [10] > 10 µM | [11] > 10 µM | [12] > 10 µM | [13] > 10 µM | [14] > 10 µM

CC12CCC(C(=O)OC1=O)C(C)(C)O2 (stereo not drawn)
inactive: [1] > 100 µM | [2] > 100 µM | [15] > 100 µM | [4] > 100 µM | [5] > 100 µM | [6] > 100 µM | [7] > 100 µM | [8] > 100 µM | [9] > 100 µM | [10] > 100 µM | [13] > 100 µM | [14] > 100 µM
